42 molecules from ChEMBL document CHEMBL1141712, “Kinase array design, back to front: biaryl amides” (Bioorg Med Chem Lett, 2008) can be followed below.

Experiment [1] deals with Mitogen-activated protein kinase 14 (Homo sapiens, UniProt Q16539). Briefly: Displacement of fluorescent ATP competitive ligand from p38alpha.
Experiment [2] has as its target Serine/threonine-protein kinase PLK1 (Homo sapiens, UniProt P53350). The experiment in a line: Inhibition of PLK1.
Experiment [3] concerns the target Macrophage colony-stimulating factor 1 receptor (Homo sapiens, UniProt P07333). Briefly: Inhibition of cFMS.
Experiment [4] concerns the target T1, Serine/threonine-protein kinase Sgk1 (Homo sapiens, UniProt O00141).
T1 sequence (O00141 whole entry): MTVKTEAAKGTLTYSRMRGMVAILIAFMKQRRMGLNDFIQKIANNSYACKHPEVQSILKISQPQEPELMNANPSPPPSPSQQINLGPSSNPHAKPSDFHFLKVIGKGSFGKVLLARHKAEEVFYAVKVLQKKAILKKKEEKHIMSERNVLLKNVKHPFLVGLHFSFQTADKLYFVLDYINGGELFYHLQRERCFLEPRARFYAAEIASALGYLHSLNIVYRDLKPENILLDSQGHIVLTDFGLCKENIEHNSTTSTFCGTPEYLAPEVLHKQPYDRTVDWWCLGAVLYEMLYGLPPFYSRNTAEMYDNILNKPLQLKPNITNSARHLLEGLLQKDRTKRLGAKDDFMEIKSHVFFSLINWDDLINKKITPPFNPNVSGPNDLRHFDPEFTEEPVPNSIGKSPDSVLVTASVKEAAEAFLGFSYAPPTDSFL
Briefly: Inhibition of SGK1.

The target of experiment [5] is Vascular endothelial growth factor receptor 2 (Homo sapiens, UniProt P35968). The experiment in a line: Inhibition of VEGFR2.
Experiment [6] addresses Cyclin-dependent kinase 2 (Homo sapiens, UniProt P24941). The experiment in a line: Inhibition of CDK2.
Experiment [7] concerns the target Mitogen-activated protein kinase 10 (Homo sapiens, UniProt P53779). Briefly: Inhibition of JNK3.
Experiment [8] has as its target Dual specificity mitogen-activated protein kinase kinase 1 (Homo sapiens, UniProt Q02750). The experiment in a line: Inhibition of MEK1 by cRaf/mek/Erk cascade assay.
For experiment [9], the target named is Epidermal growth factor receptor (Homo sapiens, UniProt P00533).
The target of experiment [10] is Receptor tyrosine-protein kinase erbB-4 (Homo sapiens, UniProt Q15303). Briefly: Inhibition of ErbB4.
Experiment [11] addresses Tyrosine-protein kinase Lck (Homo sapiens, UniProt P06239).
The test system of a further experiment is Blood. Briefly: Inhibition of LPS-stimulated TNFalpha release in human whole blood. Format: functional, tissue-based.
Another experiment has as its system PBMC. Briefly: Inhibition of LPS-stimulated TNFalpha release in human PBMCs. Format: functional, cell-based.

Chain of Epidermal growth factor receptor (P00533 whole entry): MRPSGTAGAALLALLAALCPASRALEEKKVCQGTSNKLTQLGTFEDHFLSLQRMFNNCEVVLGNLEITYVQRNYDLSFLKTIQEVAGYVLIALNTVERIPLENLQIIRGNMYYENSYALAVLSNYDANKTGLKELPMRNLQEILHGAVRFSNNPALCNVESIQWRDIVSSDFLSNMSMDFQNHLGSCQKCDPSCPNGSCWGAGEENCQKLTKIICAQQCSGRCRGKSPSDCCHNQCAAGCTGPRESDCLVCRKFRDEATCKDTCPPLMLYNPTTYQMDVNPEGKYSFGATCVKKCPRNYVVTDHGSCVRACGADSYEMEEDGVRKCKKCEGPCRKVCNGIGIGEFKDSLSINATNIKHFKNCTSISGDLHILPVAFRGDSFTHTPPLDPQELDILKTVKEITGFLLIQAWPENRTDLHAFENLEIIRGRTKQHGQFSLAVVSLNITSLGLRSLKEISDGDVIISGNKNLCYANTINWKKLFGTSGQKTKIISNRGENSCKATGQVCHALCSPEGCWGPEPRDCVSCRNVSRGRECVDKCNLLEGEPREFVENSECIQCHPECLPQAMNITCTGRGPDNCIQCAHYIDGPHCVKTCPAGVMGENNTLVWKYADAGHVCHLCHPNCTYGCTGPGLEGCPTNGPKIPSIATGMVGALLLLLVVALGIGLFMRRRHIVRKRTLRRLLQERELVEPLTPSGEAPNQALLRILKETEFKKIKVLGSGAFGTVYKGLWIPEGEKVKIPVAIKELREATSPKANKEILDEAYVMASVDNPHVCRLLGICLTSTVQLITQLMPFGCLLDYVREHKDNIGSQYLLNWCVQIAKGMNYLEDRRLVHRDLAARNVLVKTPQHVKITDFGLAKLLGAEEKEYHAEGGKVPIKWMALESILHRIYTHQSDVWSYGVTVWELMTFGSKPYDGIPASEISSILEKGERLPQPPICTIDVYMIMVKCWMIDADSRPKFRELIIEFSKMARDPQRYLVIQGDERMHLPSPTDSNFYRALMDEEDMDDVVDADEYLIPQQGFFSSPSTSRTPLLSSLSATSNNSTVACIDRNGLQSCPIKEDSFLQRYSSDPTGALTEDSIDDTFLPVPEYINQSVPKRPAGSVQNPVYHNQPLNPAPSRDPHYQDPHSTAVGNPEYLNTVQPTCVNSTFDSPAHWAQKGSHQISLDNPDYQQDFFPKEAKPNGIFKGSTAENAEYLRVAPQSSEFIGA
Chain of Vascular endothelial growth factor receptor 2 (P35968 whole entry): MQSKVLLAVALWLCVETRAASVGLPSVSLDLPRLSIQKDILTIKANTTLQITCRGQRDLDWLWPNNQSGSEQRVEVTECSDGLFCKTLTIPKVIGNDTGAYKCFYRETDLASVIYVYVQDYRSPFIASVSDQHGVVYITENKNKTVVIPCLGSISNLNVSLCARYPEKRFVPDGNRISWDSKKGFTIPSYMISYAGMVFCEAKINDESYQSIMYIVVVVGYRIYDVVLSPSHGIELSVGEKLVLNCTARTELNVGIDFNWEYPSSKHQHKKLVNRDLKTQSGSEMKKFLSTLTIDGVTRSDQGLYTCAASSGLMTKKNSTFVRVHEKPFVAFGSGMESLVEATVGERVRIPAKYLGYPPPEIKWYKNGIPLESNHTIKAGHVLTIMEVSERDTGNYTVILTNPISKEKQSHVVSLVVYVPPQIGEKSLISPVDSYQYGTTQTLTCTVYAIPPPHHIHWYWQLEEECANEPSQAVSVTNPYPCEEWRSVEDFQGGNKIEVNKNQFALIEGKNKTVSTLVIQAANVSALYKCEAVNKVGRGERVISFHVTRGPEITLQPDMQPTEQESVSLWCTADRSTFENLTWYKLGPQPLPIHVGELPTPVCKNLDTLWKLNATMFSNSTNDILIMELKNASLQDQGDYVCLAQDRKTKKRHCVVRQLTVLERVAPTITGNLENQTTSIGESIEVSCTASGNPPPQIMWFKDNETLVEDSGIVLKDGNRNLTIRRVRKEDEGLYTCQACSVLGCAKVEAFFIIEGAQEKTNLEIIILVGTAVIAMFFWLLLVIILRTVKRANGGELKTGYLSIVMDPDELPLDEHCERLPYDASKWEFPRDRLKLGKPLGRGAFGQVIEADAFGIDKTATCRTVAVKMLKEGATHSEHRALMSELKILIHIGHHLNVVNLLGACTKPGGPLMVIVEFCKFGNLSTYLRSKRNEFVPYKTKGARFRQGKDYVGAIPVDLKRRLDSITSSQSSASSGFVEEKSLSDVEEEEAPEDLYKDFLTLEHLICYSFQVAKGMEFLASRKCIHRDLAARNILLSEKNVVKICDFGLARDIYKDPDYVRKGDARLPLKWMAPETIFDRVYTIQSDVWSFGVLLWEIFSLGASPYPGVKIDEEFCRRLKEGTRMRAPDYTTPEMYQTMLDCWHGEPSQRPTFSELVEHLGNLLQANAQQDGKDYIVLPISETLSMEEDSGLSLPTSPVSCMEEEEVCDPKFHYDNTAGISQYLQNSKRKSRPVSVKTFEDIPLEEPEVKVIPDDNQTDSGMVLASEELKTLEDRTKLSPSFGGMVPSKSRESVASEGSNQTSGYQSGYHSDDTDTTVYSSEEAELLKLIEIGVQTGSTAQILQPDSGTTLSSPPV
Chain of Tyrosine-protein kinase Lck (P06239 whole entry): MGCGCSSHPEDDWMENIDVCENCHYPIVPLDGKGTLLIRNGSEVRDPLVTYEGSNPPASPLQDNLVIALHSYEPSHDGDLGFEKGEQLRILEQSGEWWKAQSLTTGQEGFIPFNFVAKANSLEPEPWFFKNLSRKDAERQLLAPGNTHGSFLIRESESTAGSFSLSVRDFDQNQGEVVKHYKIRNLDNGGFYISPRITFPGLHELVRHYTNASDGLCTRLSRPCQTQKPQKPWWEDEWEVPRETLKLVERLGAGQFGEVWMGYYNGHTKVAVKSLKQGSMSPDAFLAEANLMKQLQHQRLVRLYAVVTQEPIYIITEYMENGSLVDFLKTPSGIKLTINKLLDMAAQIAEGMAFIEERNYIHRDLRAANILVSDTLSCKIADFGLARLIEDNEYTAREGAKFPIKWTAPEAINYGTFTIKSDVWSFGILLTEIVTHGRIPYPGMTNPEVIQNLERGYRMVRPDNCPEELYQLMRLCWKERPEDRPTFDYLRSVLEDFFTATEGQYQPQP
Chain of Serine/threonine-protein kinase PLK1 (P53350 whole entry): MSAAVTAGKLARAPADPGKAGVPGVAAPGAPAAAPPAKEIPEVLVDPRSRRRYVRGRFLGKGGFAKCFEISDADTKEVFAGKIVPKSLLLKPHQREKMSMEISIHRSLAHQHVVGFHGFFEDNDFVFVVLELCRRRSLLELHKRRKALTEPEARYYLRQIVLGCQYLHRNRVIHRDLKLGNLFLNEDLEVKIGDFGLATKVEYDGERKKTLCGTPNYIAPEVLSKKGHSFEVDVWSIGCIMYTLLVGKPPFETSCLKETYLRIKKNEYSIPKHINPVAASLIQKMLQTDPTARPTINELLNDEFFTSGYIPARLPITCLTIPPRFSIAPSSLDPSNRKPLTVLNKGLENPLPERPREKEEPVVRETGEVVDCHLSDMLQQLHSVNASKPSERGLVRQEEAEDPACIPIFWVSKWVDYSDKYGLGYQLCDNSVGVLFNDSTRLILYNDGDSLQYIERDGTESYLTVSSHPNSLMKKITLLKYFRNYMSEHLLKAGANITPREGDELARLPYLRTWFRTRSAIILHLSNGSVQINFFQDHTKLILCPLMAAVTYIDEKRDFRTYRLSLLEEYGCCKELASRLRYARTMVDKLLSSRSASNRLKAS
Chain of Macrophage colony-stimulating factor 1 receptor (P07333 whole entry): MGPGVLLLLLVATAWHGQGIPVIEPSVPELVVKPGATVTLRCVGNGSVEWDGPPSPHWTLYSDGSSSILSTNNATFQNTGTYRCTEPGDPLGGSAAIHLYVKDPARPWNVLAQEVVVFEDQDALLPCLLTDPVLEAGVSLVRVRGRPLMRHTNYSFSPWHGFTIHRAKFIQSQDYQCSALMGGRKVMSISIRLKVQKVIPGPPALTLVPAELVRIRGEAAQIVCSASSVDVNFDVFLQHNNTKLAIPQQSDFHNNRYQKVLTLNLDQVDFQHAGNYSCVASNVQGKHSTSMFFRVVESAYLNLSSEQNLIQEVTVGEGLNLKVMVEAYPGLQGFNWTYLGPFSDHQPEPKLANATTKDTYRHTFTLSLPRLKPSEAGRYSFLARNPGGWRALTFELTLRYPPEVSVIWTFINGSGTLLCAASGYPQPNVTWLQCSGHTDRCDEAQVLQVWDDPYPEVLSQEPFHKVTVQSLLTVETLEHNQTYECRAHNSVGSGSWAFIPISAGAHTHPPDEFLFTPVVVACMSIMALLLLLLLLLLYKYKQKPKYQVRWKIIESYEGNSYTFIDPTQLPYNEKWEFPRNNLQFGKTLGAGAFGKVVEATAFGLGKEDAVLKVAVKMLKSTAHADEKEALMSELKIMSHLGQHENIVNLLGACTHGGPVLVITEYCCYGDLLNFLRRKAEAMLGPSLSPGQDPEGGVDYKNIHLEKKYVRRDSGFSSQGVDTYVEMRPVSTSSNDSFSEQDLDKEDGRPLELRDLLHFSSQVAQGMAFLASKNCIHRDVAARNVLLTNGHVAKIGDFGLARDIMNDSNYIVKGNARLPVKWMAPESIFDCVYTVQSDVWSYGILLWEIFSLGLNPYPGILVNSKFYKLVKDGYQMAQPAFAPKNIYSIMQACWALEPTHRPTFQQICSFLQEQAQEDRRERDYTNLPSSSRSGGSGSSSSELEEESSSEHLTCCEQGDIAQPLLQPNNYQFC
Chain of Mitogen-activated protein kinase 14 (Q16539 whole entry): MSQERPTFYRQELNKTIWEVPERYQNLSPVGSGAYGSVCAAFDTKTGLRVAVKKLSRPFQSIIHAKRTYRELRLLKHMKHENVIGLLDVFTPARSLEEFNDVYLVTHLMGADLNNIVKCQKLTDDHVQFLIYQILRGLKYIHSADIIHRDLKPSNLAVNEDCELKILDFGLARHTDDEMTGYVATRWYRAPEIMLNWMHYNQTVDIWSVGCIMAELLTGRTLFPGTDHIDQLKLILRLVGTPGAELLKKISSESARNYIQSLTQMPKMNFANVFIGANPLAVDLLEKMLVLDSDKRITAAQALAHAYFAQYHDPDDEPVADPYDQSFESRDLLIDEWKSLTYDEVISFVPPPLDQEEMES

For orientation: Ki means a measure of affinity in units of concentration, obtained from inhibition or displacement. `CC(=O)Nc1cc(-c2ccc(-c3cc(NC(=O)c4ccnc(N5CCCC5)c4)ccc3C)cc2)[nH]n1`: the affinity in experiment [1], expressed as Ki, was 14 nM. That is a double-digit nanomolar value.

Broadly, the IC50 is the point on the concentration scale where inhibition reaches its midpoint. Low readings indicate higher potency, high ones lower potency. `Cc1ccc(C(=O)Nc2cccc(N3CCOCC3)c2)cc1-c1ccc2c(C3CCNCC3)noc2c1`: the IC50 in experiment [2] was more than 25000 nM; in [3], more than 20000 nM; in experiment [4], more than 33000 nM; in experiment [5], more than 20000 nM; in experiment [6], more than 20000 nM; in [7], more than 16000 nM. Also, it took 40 nM to reach half-maximal inhibition in [8] (IC50).

Consider `Cc1ccc(C(=O)Nc2cccc(N3CCOCC3)c2)cc1-c1ccc2onc(C)c2c1`, for which the Ki in experiment [1] came out at 380 nM. In other words, the sub-micromolar range.

In turn, `Cc1ccc(NC(=O)c2ccnc(N3CCCC3)c2)cc1-c1ccc2[nH]c(=O)ccc2c1` came in with an inhibitory constant (Ki) in [1] of 49 nM.

On to `Cc1ccc(C(=O)Nc2cccc(N3CCOCC3)c2)cc1-c1ccc2[nH]ncc2c1`, for which the affinity in experiment [1] corresponds to a Ki of 110 nM.

Consider `Cc1ccc(NC(=O)c2ccc(CN3CCN(C)CC3)cc2)cc1-c1ccc(-c2csc(N)n2)cc1`, for which the IC50 in [2] was more than 25000 nM; in [3], 90 nM; in experiment [9] it was more than 25000 nM; in experiment [4], more than 33000 nM; in experiment [5] it was more than 20000 nM; in experiment [6] it was more than 20000 nM. Also, the IC50 in experiment [10] is more than 25000 nM; in experiment [7], more than 16000 nM; in [11], 2000 nM. In experiment [1], the Ki is more than 850 nM.

With `Cc1nc(-c2ccc(-c3cc(C(=O)NC4CC4)ccc3C)cc2)no1`, the Ki in experiment [1] stood at 98 nM.

Take `Cc1ccc(C(=O)Nc2cccc(N3CCOCC3)c2)cc1-c1ccc2nc(N)[nH]c(=O)c2c1`: the affinity in [1], expressed as Ki, was 4.7 nM.

As to `Cc1ccc(C(=O)NC2CC2)cc1-c1ccc2nc(N)[nH]c(=O)c2c1`, the Ki in [1] turned out to be 49 nM.

In [1], `Cc1nc(-c2ccc(-c3cc(C(=O)Nc4cccc(N5CCOCC5)c4)ccc3C)cc2)no1` returned a Ki of 17 nM. This Ki lies about 2.9-fold lower than the previous one.

In the case of `Cc1ccc(C(=O)NC2CC2)cc1-c1ccc2cccnc2c1`, the affinity in [1] corresponds to a Ki of 490 nM. This Ki is about 29-fold higher than that of the molecule before.

`Cc1ccc(NC(=O)c2ccc(CN3CCN(C)CC3)cc2)cc1-c1ccc2cccnc2c1` came in with an inhibition constant Ki in experiment [1] of more than 2500 nM.

In the case of `Cc1ccc(C(=O)NC2CC2)cc1-c1ccc2c(=O)cc(-c3cccs3)oc2c1`, in [1], affinity was put at a Ki of 6.7 nM. In other words, the single-digit nanomolar range.

For `Cc1ccc(C(=O)Nc2cccc(N3CCOCC3)c2)cc1-c1ccc2[nH]c(=O)ccc2c1`, the Ki in experiment [1] came to 290 nM.

Take `Cc1nc(-c2ccc(-c3cc(NC(=O)c4ccc(CN5CCN(C)CC5)cc4)ccc3C)cc2)no1`: the inhibition constant (Ki) in experiment [1] is more than 850 nM.

`CCCCn1c(=O)[nH]c2cc(-c3cc(NC(=O)c4ccnc(N5CCCC5)c4)ccc3C)ccc2c1=O`: the affinity in experiment [1], expressed as Ki, was 11 nM.

With `Cc1nnc(-c2ccc(-c3cc(NC(=O)c4ccc(CN5CCN(C)CC5)cc4)ccc3C)c(C)c2)o1`, the IC50 in [2] is more than 25000 nM; in experiment [3], 100 nM; in [9], more than 25000 nM; in [4], more than 33000 nM; in experiment [5], more than 20000 nM; in [6] it was more than 20000 nM. The IC50 is more than 25000 nM in experiment [10], more than 16000 nM in [7] and 3000 nM in experiment [11]. Moreover, the affinity in experiment [1] corresponds to a Ki of 1400 nM.

`Cc1ccc(NC(=O)c2ccnc(N3CCCC3)c2)cc1-c1ccc2c(N)noc2c1` displayed a Ki in [1] of 12 nM.

As for `Cc1ccc(NC(=O)c2ccc(CN3CCN(C)CC3)cc2)cc1-c1ccc2c(N)noc2c1`, the IC50 was more than 25000 nM in [2]; 90 nM in [3]; more than 25000 nM in [9]; more than 33000 nM in experiment [4]; more than 20000 nM in experiment [5]; more than 20000 nM in experiment [6]. For the same molecule, the IC50 in experiment [10] is more than 25000 nM; in experiment [7], more than 16000 nM; in [11], 1000 nM. Also, the Ki in [1] was more than 850 nM.

The molecule `Cc1ccc(C(=O)Nc2cccc(N3CCOCC3)c2)cc1-c1ccc2ccncc2c1` had a Ki in experiment [1] of 4.5 nM.

`CCCCn1c(=O)[nH]c2cc(-c3cc(C(=O)NC4CC4)ccc3C)ccc2c1=O`: in experiment [1], the affinity corresponds to a Ki of 18 nM.

In experiment [1], `CCCCn1c(=O)[nH]c2cc(-c3cc(C(=O)Nc4cccc(N5CCOCC5)c4)ccc3C)ccc2c1=O` displayed a Ki of 19 nM.

Molecule `Cc1ccc(NC(=O)c2ccc(CN3CCN(C)CC3)cc2)cc1-c1ccc2[nH]c(=O)ccc2c1` had a Ki in [1] of more than 2500 nM.

Consider `Cc1ccc(C(=O)NC2CC2)cc1-c1ccc2cc[nH]c(=O)c2c1`, for which affinity in [1] was put at a Ki of 420 nM.

In the case of `Cc1ccc(C(=O)Nc2cccc(N3CCOCC3)c2)cc1-c1ccc2cc[nH]c(=O)c2c1`, in [1], the affinity, expressed as Ki, was 18 nM.

Consider `Cc1ccc(C(=O)NC2CC2)cc1-c1ccc2c(N)noc2c1`, for which, in [1], the Ki came to 110 nM.

The molecule `Cc1ccc(C(=O)NC2CC2)cc1-c1ccc(-c2csc(N)n2)cc1` registered an inhibition constant (Ki) in experiment [1] of 130 nM.

On to `Cc1ccc(NC(=O)c2ccnc(N3CCCC3)c2)cc1-c1ccc2cc[nH]c(=O)c2c1`, for which the Ki in experiment [1] was determined as 2.4 nM. This Ki is about 54-fold lower than that of the molecule before.

The molecule `Cc1ccc(NC(=O)c2ccc(CN3CCN(C)CC3)cc2)cc1-c1ccc2cc[nH]c(=O)c2c1` showed a Ki in [1] of more than 2500 nM.

Molecule `CCCCn1c(=O)[nH]c2cc(-c3cc(NC(=O)c4ccc(CN5CCN(C)CC5)cc4)ccc3C)ccc2c1=O` registered a Ki in experiment [1] of 2000 nM.

In experiment [1], `Cc1ccc(NC(=O)c2ccnc(N3CCCC3)c2)cc1-c1ccc2nc(N)[nH]c(=O)c2c1` had a Ki of 6.8 nM.

In the case of `Cc1nc(-c2ccc(-c3cc(NC(=O)c4ccnc(N5CCCC5)c4)ccc3C)cc2)no1`, the affinity in experiment [1] corresponds to a Ki of 1.1 nM.

`Cc1ccc(C(=O)NC2CC2)cc1-c1ccc2c(=O)n(CC3CC3)nnc2c1`: the IC50 is more than 25000 nM in [2]; more than 20000 nM in [3]; 500 nM with Blood; more than 25000 nM in [9]; 32000 nM in [4]; 400 nM in the experiment with PBMC. The IC50 was more than 20000 nM in [5]; more than 20000 nM in experiment [6]; more than 25000 nM in experiment [10]; more than 16000 nM in [7]; more than 16000 nM in [11]. The same molecule displayed an inhibition constant (Ki) in [1] of 6 nM.

With `Cc1ccc(NC(=O)c2ccc(CN3CCN(C)CC3)cc2)cc1-c1ccc2ccncc2c1`, the IC50 was more than 25000 nM in experiment [2]; 4 nM in experiment [3]; 700 nM in [9]; more than 33000 nM in experiment [4]; 800 nM in experiment [5]; more than 20000 nM in experiment [6]. Also, the IC50 is 300 nM in [10], more than 16000 nM in experiment [7] and 70 nM in experiment [11]. The Ki in [1] came out at 830 nM.

With `Cc1ccc(NC(=O)c2ccnc(N3CCCC3)c2)cc1-c1ccc2onc(C)c2c1`, in experiment [1], the Ki worked out at 160 nM.

With `Cc1nnc(-c2ccc(-c3cc(C(=O)Nc4cccc(N5CCOCC5)c4)ccc3C)c(C)c2)o1`, the IC50 in experiment [2] was more than 25000 nM; in experiment [3] it was 700 nM; in [4] it was more than 33000 nM; in experiment [5], 6000 nM; in experiment [6], more than 20000 nM; in experiment [7], more than 16000 nM. The same molecule registered an IC50 in [8] of 400 nM. The molecule also gave a Ki in experiment [1] of 2.8 nM.

Regarding `Cc1ccc(C(=O)NC2CC2)cc1-c1ccc2c(=O)[nH]c(-c3cccs3)nc2c1`, the Ki in [1] was found to be 2.9 nM. That is a single-digit nanomolar value.

For `Cc1ccc(C(=O)Nc2cccc(N3CCOCC3)c2)cc1-c1ccc(-c2csc(N)n2)cc1`, the Ki in experiment [1] was found to be 20 nM.

In turn, `Cc1ccc(C(=O)Nc2cccc(N3CCOCC3)c2)cc1-c1ccc2c(N)noc2c1` showed an inhibitory constant (Ki) in experiment [1] of 19 nM.

Molecule `Cc1ccc(C(=O)NC2CC2)cc1-c1ccc2onc(C)c2c1` showed a Ki in experiment [1] of 1100 nM.

Take `Cc1ccc(NC(=O)c2ccnc(N3CCCC3)c2)cc1-c1ccc(-c2csc(N)n2)cc1`: affinity in experiment [1] was put at a Ki of 6.7 nM.

In experiment [1], `Cc1ccc(C(=O)NC2CC2)cc1-c1ccc2[nH]ncc2c1` [GW820759X] gave a Ki of 87 nM.
